Test results reported in PMC10298275, “Antiproliferative Activity and Impact on Human Gut Microbiota of New O-Alkyl Derivatives of Naringenin and Their Oximes” (International Journal of Molecular Sciences, 2023).
Converted amounts (≈) assume the structure as drawn. Where two headings read alike, the source gives them in different places.

Legend:
HT-29 cells [1] = test: RealTime-Glo Annexin V Apoptosis and Necrosis Assay; type: cell-based, human; conditions: HT-29, during 12 h incubation, applied concentrations 10-100 µg/mL
Protocol: The process of apoptosis was determined using the RealTime-Glo Annexin V Apoptosis and Necrosis Assay (Promega) according to the manufacturer’s protocol. Briefly, 1 × 10^4 HT-29 cells were seeded into a single well of a 96-well plate. After overnight incubation, the cells were treated with 10, 25, 50 and 100 µg/mL of the investigated compounds and detection reagent for 24 h. As a negative control, untreated cells were used. The luminescence, fluorescence and OD525 signals were detected at each hour of the first 12 h of incubation. The end measurement was performed at the 24th hour of the experiment. All samples were prepared in triplicate, and then their means were calculated.

[2] = tested on: Staphylococcus aureus ATCC 25923; test: MIC, microdilution method; type: cell-based; conditions: S. aureus ATCC 25923, MHB, 18 h, 37 °C, tested 512 to 1 µg/mL
Protocol: (§1) Non-pathogenic reference strains representing the intestinal microbiome were used for the studies: Escherichia coli K12, Staphylococcus aureus ATCC 25923 and Enterococcus faecalis ATCC 29212. All strains were obtained from the collection of the Department of Microbiology at the Medical University of Wrocław.
(§2) The strains were received from the museum (−80 °C) and grown in tryptic soy broth (TSB, OXOID, Basingstoke, UK) under continuous shaking conditions (MaxQTM6000 incubator shaker, Thermo Scientific, Waltham, MA, USA) at 125 rpm at 37 °C. Then, they were moved to the growth media, namely tryptic soy agar (TSA, OXOID, Basingstoke, UK) and MacConkey agar (MC, Millipore, Darmstadt, Germany) for S. aureus or E. faecalis and E. coli, respectively.
(§3) A fresh 18–24 h culture was used for each study. For this purpose, a culture with a density of 1.5 × 10^8 CFU/mL in Mueller–Hinton broth (MHB, OXOID, Basingstoke, UK) was prepared and used for further microdilution studies.
(§4) The antimicrobial activity of the O-alkyl derivatives of naringenin and their oximes was tested in vitro using the microdilution method, showing the minimum inhibitory concentration (MIC), in accordance with the recommendations of the European Antimicrobial Susceptibility Testing Committee EUCAST [44]. MICs were determined in 96-well microdilution plates. The tests were carried out in MHB medium. The O-alkyl derivatives of naringenin and their oximes were tested in the concentration range of 512 to 1 µg/mL in a geometric process in MHB medium. The final concentration of the test strains in each test well was 5 × 10^5 CFU/mL. MICs were read after 18 h (for E. coli and S. aureus) and 24 h (for E. faecalis) incubation at 37 °C.
(§5) A strain growth control (tested strain in medium), background control for tested compounds (naringenin derivatives in MHB), medium control (only pure MHB) and compound solvent control (DMSO at test compound concentration, strain and MHB) were set for each experiment. Each test was set up with three independent experiments, each as three separate replicates.
(§6) The […], OD600, was measured in a plate reader (ASYS UVM340, BIOCHROM Ltd., Cambridge, UK). The background control of the tested compounds and the clean medium were included in the absorbance results.

Escherichia coli K12 [3] = test: MIC, microdilution method; type: cell-based; conditions: E. coli K12, MHB, 18 h, 37 °C, tested 512 to 1 µg/mL
Protocol: as §1, §2, §3, §4, §5, §6

[4] = tested on: Enterococcus faecalis ATCC 29212; test: MIC, microdilution method; type: cell-based; conditions: E. faecalis ATCC 29212, MHB, 24 h, 37 °C, tested 512 to 1 µg/mL
Protocol: as §1, §2, §3, §4, §5, §6

HT-29 cells [5] = test: MTT assay, cell viability; type: cell-based, human; conditions: HT-29, highest concentration 100 µg/mL, 24 h
Protocol: (§7) The HT-29 cells (ATCC, Manassas, VA, USA) were cultured within α-MEM (IIET PAS, Wrocław, Poland) supplemented with 10% fetal bovine serum (Sigma, St. Louis, MO, USA), antimycotic (100 μg/mL penicillin, 100 μg/mL streptomycin and 0.25 μg/mL amphotericin) (Sigma) and 2 mM glutamine (Sigma). The 3T3-L1 cells (ATCC, Manassas, VA, USA) were cultivated using DMEM high-glucose medium (IIET PAS, Wrocław, Poland) supplemented as above. Both cell lines were cultured at 37 °C in an atmosphere of 5% CO2.
First, 1 × 10^4 HT-29 cells or 5 × 10^3 3T3-L1 cells were seeded into a 96-well plate and incubated for one night. Then, cells were treated with different concentrations of the investigated compounds within 24 h. Afterwards, the medium was replaced with a fresh medium containing 0.5 mg/mL of 3-(4,5-dimethylthiazol-2-yl)-2,5-diphenyl-2H-tetrazolium bromide (MTT, Sigma) and incubated for 2 h at 37 °C. After removing the medium, the formazan salts were dissolved in dimethyl sulfoxide (DMSO, Sigma), and the absorbance of the solution was measured at 560 nm using a plate reader.

[6] = tested on: caspase 3/7 in HT-29 cells; test: Caspase-Glo 3/7 Assay; type: cell-based, human; conditions: HT-29, 50 µg/mL, measured at 6, 12, 24 and 48 h
Protocol: The activity of two effector caspases 3 and 7 was analyzed using the Caspase-Glo 3/7 Assay (Promega) according to the recommendations of the manufacturer. The cells were seeded at a density of 1 × 10^4 per well for the test on a 96-well plate. Then, cells were incubated with A2, B2, A9, B9 and NG at a concentration of 50 µg/mL for 48 h. Half an hour before each measurement of caspase activity, an equal volume of Caspase-Glo 3/7 substrate solution was added to cells. The luminescence signals were detected using a GloMax Discover Microplate Reader at the 6th, 12th, 24th and 48th hours of the experiment. The reactions for each sample were repeated in triplicate and presented as the mean value.

SRB assay, cytotoxicity [7] = type: cell-based, human; conditions: human, HT-29 cells; HT-29, SRB, 24 h exposure, three independent repeats; read-out: Cytotoxicity (IC50 ± SD)
Protocol: as §7
(§8) The sulforhodamine B (SRB) assay was performed according to a previously published protocol. Briefly, 1 × 10^4 HT-29 or 5 × 10^3 3T3-L1 cells were seeded into 96-well plates. After attaching to the plate surface, the cells were incubated with 100, 75, 50, 25, 10 or 1 µg/mL of the investigated compounds for 24 h. After this time, proteins were precipitated with trichloroacetic acid and stained with SRB. The absorbance was measured at 560 nm using a GloMax Discover Microplate Reader (Promega, Madison, WI, USA).

[8] = tested on: Staphylococcus aureus ATCC 25923; test: MBC assay; type: cell-based; conditions: Staphylococcus aureus, ATCC25923; S. aureus ATCC 25923; read-out: MBC
Protocol: (§9) The minimum bactericidal concentration (MBC) was tested for all naringenin derivatives. First, 10 µL of medium was taken from the plate, on which the MIC was determined for the MIC value, the value below and the two values above. This volume was transferred to TSA or MC agar. After 18–24 h (depending on strain) incubation at 37 °C, colonies were counted. The concentration of test compounds at which no bacterial growth was observed was defined as the MBC value. Each experiment was repeated 3 times.

Escherichia coli K12 [9] = test: MBC assay; type: cell-based; conditions: E. coli K12
Protocol: as §9

[10] = tested on: Enterococcus faecalis ATCC 29212; test: MBC assay; type: cell-based; conditions: Enterococcus faecalis, ATCC29212; E. faecalis ATCC 29212; read-out: MBC
Protocol: as §9

SRB assay, cytotoxicity [11] = type: cell-based, mouse; conditions: mouse, 3T3-L1 cells; 3T3-L1, SRB, 24 h exposure, three independent repeats; read-out: Cytotoxicity (IC50 ± SD)
Protocol: as §7, §8

HT-29 cells [12] = test: SRB assay, cytotoxicity; type: cell-based, human; conditions: HT-29, SRB, up to 100 µg/mL
Protocol: as §7, §8

[13] = Staphylococcus aureus, ATCC25923, read-out: MIC
[14] = Escherichia coli, read-out: MIC
[15] = Enterococcus faecalis, ATCC29212, read-out: MIC
[16] = Escherichia coli, read-out: MBC

Row | SMILES | MIC [2] | MIC [2, 13] | MIC (Escherichia coli K12 [3]; [14]) | MIC [4, 15] | melting point | MIC [4] | MIC (Escherichia coli K12 [3]) | annexin V luminescence and necrosis fluorescence signals versus untreated cells (HT-29 cells [1]) | effect on colon adenocarcinoma cells (viability, MTT) (HT-29 cells [5]) | caspase 3/7 activation [6] | IC50 at 24 h (SRB assay, cytotoxicity [7]) | MBC [8] | MBC (Escherichia coli K12 [9]; [16]) | MBC [10] | IC50 at 24 h (SRB assay, cytotoxicity [11]) | effect on the proliferation of the HT-29 cell line (HT-29 cells [12]) | MBC (Escherichia coli K12 [9])
1 | CCCCCCOc1ccc([C@@H]2CC(=O)c3c(O)cc(OCCCCCC)cc3O2)cc1 [A2, 7,4′-di-O-hexylnaringenin] | >512 (>512) µg/mL | > 512 µg/mL | > 512 µg/mL | 64 µg/mL (≈ 145 µM) | – | – | – | both signals were similar to those for untreated cells | weak | neither membrane switching of phosphatidylserine nor caspase activation was observed | > 100 µg/mL | > 512 µg/mL | > 512 µg/mL | > 512 µg/mL | > 100 µg/mL | – | –
2 | CCCCCCCCOc1ccc([C@@H]2CC(=O)c3c(O)cc(OCCCCCCCC)cc3O2)cc1 [A6, 7,4′-Di-O-octylnaringenin] | >512 (>512) µg/mL | > 512 µg/mL | > 512 µg/mL | 32 µg/mL (≈ 64.4 µM) | 60 to 61 °C | – | – | – | weak | – | > 100 µg/mL | > 512 µg/mL | > 512 µg/mL | > 512 µg/mL | > 100 µg/mL | no effect on the proliferation | –
3 | CCCCCCCCCCCOc1cc(O)c2c(c1)O[C@H](c1ccc(O)cc1)CC2=O [A9, 7-O-Undecylnaringenin] | >512 (>512) µg/mL | > 512 µg/mL | > 512 µg/mL | 512 µg/mL (≈ 1200 µM) | 103 to 104 °C | 512 (>512) µg/mL | – | both signals were similar to those for untreated cells | completely inhibited | significant caspase 3/7 activation was also detected | 17.9 ± 0.65 µg/mL (≈ 41.8 µM) | > 512 µg/mL | > 512 µg/mL | > 512 µg/mL | 10.2 ± 0.2 µg/mL (≈ 23.8 µM) | – | –
4 | CCCCCCOc1ccc([C@@H]2CC(=NO)c3c(O)cc(OCCCCCC)cc3O2)cc1 [B2, 7,4′-di-O-hexylnaringenin oxime] | – | > 512 µg/mL | > 512 µg/mL | > 512 µg/mL | – | >512 (>512) µg/mL | – | both signals were similar to those for untreated cells | – | neither membrane switching of phosphatidylserine nor caspase activation was observed | 49.8 ± 1.63 µg/mL (≈ 109 µM) | > 512 µg/mL | > 512 µg/mL | > 512 µg/mL | 10.1 ± 6.49 µg/mL (≈ 22.1 µM) | – | –

Now from value to compound, other results behind:

Row | MIC [2] | MIC [2, 13] | MIC (Escherichia coli K12 [3]; [14]) | MIC [4, 15] | melting point | MIC [4] | MIC (Escherichia coli K12 [3]) | SMILES | annexin V luminescence and necrosis fluorescence signals versus untreated cells (HT-29 cells [1]) | effect on colon adenocarcinoma cells (viability, MTT) (HT-29 cells [5]) | caspase 3/7 activation [6] | IC50 at 24 h (SRB assay, cytotoxicity [7]) | MBC [8] | MBC (Escherichia coli K12 [9]; [16]) | MBC [10] | IC50 at 24 h (SRB assay, cytotoxicity [11]) | effect on the proliferation of the HT-29 cell line (HT-29 cells [12]) | MBC (Escherichia coli K12 [9])
5 | 512 (>512) µg/mL | 512 µg/mL (≈ 976 µM) | > 512 µg/mL | 512 µg/mL (≈ 976 µM) | 70 to 71 °C | 512 (>512) µg/mL | – | CCCCCCCCCOc1ccc([C@@H]2CC(=O)c3c(O)cc(OCCCCCCCCC)cc3O2)cc1 [A8, 7,4′-Di-O-nonylnaringenin] | – | weak | – | > 100 µg/mL | > 512 µg/mL | > 512 µg/mL | > 512 µg/mL | > 100 µg/mL | no effect on the proliferation | –
6 | – | 256 µg/mL (≈ 441 µM) | > 512 µg/mL | 32 µg/mL (≈ 55.1 µM) | 63 to 64 °C | – | – | CCCCCCCCCCCOc1ccc([C@@H]2CC(=O)c3c(O)cc(OCCCCCCCCCCC)cc3O2)cc1 [A10, 7,4′-Di-O-undecylnaringenin] | – | weak | – | > 100 µg/mL | > 512 µg/mL | > 512 µg/mL | > 512 µg/mL | > 100 µg/mL | no effect on the proliferation | –
7 | – | 512 µg/mL (≈ 1880 µM) | 512 µg/mL (≈ 1880 µM) | > 512 µg/mL | – | – | 512 µg/mL (≈ 1880 µM) | O=C1C[C@@H](c2ccc(O)cc2)Oc2cc(O)cc(O)c21 [NG, naringenin] | both signals were similar to those for untreated cells | weak | neither membrane switching of phosphatidylserine nor caspase activation was observed | > 100 µg/mL | > 512 µg/mL | > 512 µg/mL | > 512 µg/mL | > 100 µg/mL | – | > 512 µg/mL
